Laboratory results: PubChem BioAssay (NCI)
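Protocol summary: plate cells (96-well), add compound at 5 concentrations, incubate 48 h, interpolate endpoints linearly. The concentration for full growth arrest is given as TGI.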

Assays:
Assay in all cases: DTP human tumour cell line panel, 48 h
[1] = test system: 786-0 renal
[2] = test system: A498 renal
[3] = test system: A549 NSCLC
[4] = test system: ACHN renal
[5] = test system: CAKI-1 renal
[6] = test system: CCRF-CEM leukemia
[7] = test system: COLO 205 colon
[8] = test system: DLD-1 colon
[9] = test system: DMS 114 small cell lung
[10] = test system: DMS 273 small cell lung
[11] = test system: EKVX NSCLC
[12] = test system: HCC-2998 colon
[13] = test system: HCT-116 colon
[14] = test system: HCT-15 colon
[15] = test system: HL-60(TB) leukemia
[16] = test system: HOP-18 NSCLC
[17] = test system: HOP-62 NSCLC
[18] = test system: HOP-92 NSCLC
[19] = test system: HT29 colon
[20] = test system: IGROV1 ovarian
[21] = test system: K-562 leukemia
[22] = test system: KM12 colon
[23] = test system: KM20L2 colon
[24] = test system: LOX IMVI melanoma
[25] = test system: LXFL 529 NSCLC
[26] = test system: M14 melanoma
[27] = test system: M19-MEL melanoma
[28] = test system: MALME-3M melanoma
[29] = test system: NCI-H226 lung
[30] = test system: NCI-H23 lung
[31] = test system: NCI-H460 lung
[32] = test system: NCI-H522 lung
[33] = test system: OVCAR-3 ovarian
[34] = test system: OVCAR-4 ovarian
[35] = test system: OVCAR-5 ovarian
[36] = test system: OVCAR-8 ovarian
[37] = test system: RXF 393 renal
[38] = test system: RXF-631 renal
[39] = test system: SF-268 CNS
[40] = test system: SF-295 CNS
[41] = test system: SF-539 CNS
[42] = test system: SK-MEL-2 melanoma
[43] = test system: SK-MEL-28 melanoma
[44] = test system: SK-MEL-5 melanoma
[45] = test system: SK-OV-3 ovarian
[46] = test system: SN12C renal
[47] = test system: SNB-19 CNS
[48] = test system: SNB-75 CNS
[49] = test system: SNB-78 CNS
[50] = test system: SW-620 colon
[51] = test system: TK-10 renal
[52] = test system: U251 CNS
[53] = test system: UACC-257 melanoma
[54] = test system: UACC-62 melanoma
[55] = test system: UO-31 renal
[56] = test system: XF 498 CNS

Measured: TGI

O=c1/c(=C/c2c(O)ccc3ccccc23)sc2nc3ccccc3n12
> 100 µM: all assays above
